The values below come from US10259810B2, “N-sulfonylated pyrazolo[3,4-b]pyridin-6-carboxamides and method of use” (AbbVie S.à.r.l., priority 2015, dated 2019).

The target of assay [1] is T1, ΔF508-CFTR (Homo sapiens, UniProt P13569, DEL508-508).
T1 construct: host or cells: CFBE41o-, doxycycline-inducible
The assay can be described thus: CFTR cell surface levels using HRP-tagged ΔF508-CFTR expressing CFBE cells, in the presence of a co-corrector. The format is cell-based. Conditions: HRP-tagged ΔF508-CFTR CFBE cells, in the presence of 3 μM co-corrector; for EC50: read-out: EC50. The method, boiled down: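 Chemiluminescent read-out of surface HRP (15 min, dark) after PBS washes. Activity is normalized as 100×(sample−DMSO)/(3 μM co-corrector alone−DMSO).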

The target of assay [2] is T2, CFTR ΔF508 (Homo sapiens, UniProt P13569, DEL508-508).
T2 construct: bronchial epithelial cells isolated from CF patients homozygous for the CFTR ΔF508 mutation; McGill University; Asterand; University of North Carolina hAEC-CF; host or cells: primary human bronchial epithelial cells from CF patients homozygous for ΔF508, differentiated at air-liquid interface
Description: Acute TECC assay, primary bronchial epithelial cells of CF patients homozygous for CFTR ΔF508, with and without co-corrector. The note with it: 24 h, Ieq based on maximum current, normalized to DMSO and positive control; for % Activity at 3 μM (Ieq*): 3 μM compound. The format is cell-based. As to the method:
Primary Bronchial Epithelial Cells Protocol
The TECC (Tranepithelial Clamp Circuit, EP-design) assay measures the functionality of the cystic fibrosis Transmembrane Conductance regulator (CFTR) by measuring the short circuit current (Isc) generated over the basolateral and apical membrane of lung epithelial cells. In TECC the transepithelial potential PD and transepithelial resistance (Rt) are measured in an open circuit and transformed to Ieq using Ohm's law. 24 Wells can be measured simultaneously allowing a higher throughput compared to Ussing chambers.
For this purpose, bronchial epithelial cells isolated from CF patients homozygous for the CFTR ΔF508 mutation (hAEC-CF, Epithelix, Geneva, Switzerland; McGill University, Montreal, Qc; Asterand, Detroit, Mich.; University of North Carolina, Chapel Hill, N.C.) are plated on type IV collagen-coated Transwell® supports (Costar). Human airway epithelia are generated by provision of an air-liquid interface for 21 days to form well-differentiated polarized cultures that resemble in vivo pseudo-stratified ciliated epithelium (Fulcher, M. L., Gabriel, S., Burns, K. A., Yankaskas, J. R., Randell, S. H., 2005. Well-differentiated human airway epithelial cell cultures. Methods Mol. Med. 107, 183-206). The differentiated cells are treated with test corrector compound(s) (corrector alone or in combination with co-corrector, 4-[(2R,4R)-4-({[1-(2,2-difluoro-1,3-benzodioxol-5-yl)cyclopropyl]carbonyl}amino)-7-methoxy-3,4-dihydro-2H-chromen-2-yl]benzoic acid (“acute”) or test corrector compounds, co-corrector and potentiator, N-(3-carbamoyl-5,5,7,7-tetramethyl-4,7-dihydro-5H-thieno[2,3-c]pyran-2-yl)-1H-pyrazole-5-carboxamide (“chronic”) for 24 hours basolaterally to allow sufficient expression of properly folded CFTR protein on the membrane. All compound plates contained negative controls (DMSO) and positive controls (0.15 μM, 4-[(2R,4R)-4-({[1-(2,2-difluoro-1,3-benzodioxol-5-yl)cyclopropyl]carbonyl}amino)-7-(difluoromethoxy)-3,4-dihydro-2H-chromen-2-yl]benzoic acid).
For electrophysiological recording of the “acute” experiments, the human airway epithelia are mounted in the TECC heating plate and kept at 37° C. The epithelia are bathed in a NaCl-Ringer solution (120 mM NaCl, 25 mM NaHCO3, 1.2 mM CaCl2, 1.2 mM MgCl2, 0.8 mM KH2PO4, 0.8 mM K2HPO4, pH 7.4, 5 mM glucose) on both the basolateral and apical sides. Apical amiloride is used to inhibit the endogenous epithelial sodium channel (ENaC) currents while forskolin is applied on both apical and basolateral side to stimulate CFTR. CFTR activity is measured by addition of forskolin followed by addition of a potentiator, N-(3-carbamoyl-5,5,7,7-tetramethyl-4,7-dihydro-5H-thieno[2,3-c]pyran-2-yl)-1H-pyrazole-5-carboxamide, on both sides. The potentiator, 3-amino-N-[(2S)-2-hydroxypropyl]-5-{[4-(trifluoromethoxy)phenyl]sulfonyl}pyridine-2-carboxamide, was used in place of N-(3-carbamoyl-5,5,7,7-tetramethyl-4,7-dihydro-5H-thieno[2,3-c]pyran-2-yl)-1H-pyrazole-5-carboxamide in some assays. Measurements are done during a 20 minute timeframe with recordings every 2 minutes. […] Inhibitor-172, an inhibitor specific for CFTR, is used to test the specificity of the tested compounds. Raw data were normalized to percentage activity values using the equation: 100×(Sample−Negative control)/(Positive control−Negative Control).

T1 sequence (P13569 with tags, fused parts or gaps DEL508-508): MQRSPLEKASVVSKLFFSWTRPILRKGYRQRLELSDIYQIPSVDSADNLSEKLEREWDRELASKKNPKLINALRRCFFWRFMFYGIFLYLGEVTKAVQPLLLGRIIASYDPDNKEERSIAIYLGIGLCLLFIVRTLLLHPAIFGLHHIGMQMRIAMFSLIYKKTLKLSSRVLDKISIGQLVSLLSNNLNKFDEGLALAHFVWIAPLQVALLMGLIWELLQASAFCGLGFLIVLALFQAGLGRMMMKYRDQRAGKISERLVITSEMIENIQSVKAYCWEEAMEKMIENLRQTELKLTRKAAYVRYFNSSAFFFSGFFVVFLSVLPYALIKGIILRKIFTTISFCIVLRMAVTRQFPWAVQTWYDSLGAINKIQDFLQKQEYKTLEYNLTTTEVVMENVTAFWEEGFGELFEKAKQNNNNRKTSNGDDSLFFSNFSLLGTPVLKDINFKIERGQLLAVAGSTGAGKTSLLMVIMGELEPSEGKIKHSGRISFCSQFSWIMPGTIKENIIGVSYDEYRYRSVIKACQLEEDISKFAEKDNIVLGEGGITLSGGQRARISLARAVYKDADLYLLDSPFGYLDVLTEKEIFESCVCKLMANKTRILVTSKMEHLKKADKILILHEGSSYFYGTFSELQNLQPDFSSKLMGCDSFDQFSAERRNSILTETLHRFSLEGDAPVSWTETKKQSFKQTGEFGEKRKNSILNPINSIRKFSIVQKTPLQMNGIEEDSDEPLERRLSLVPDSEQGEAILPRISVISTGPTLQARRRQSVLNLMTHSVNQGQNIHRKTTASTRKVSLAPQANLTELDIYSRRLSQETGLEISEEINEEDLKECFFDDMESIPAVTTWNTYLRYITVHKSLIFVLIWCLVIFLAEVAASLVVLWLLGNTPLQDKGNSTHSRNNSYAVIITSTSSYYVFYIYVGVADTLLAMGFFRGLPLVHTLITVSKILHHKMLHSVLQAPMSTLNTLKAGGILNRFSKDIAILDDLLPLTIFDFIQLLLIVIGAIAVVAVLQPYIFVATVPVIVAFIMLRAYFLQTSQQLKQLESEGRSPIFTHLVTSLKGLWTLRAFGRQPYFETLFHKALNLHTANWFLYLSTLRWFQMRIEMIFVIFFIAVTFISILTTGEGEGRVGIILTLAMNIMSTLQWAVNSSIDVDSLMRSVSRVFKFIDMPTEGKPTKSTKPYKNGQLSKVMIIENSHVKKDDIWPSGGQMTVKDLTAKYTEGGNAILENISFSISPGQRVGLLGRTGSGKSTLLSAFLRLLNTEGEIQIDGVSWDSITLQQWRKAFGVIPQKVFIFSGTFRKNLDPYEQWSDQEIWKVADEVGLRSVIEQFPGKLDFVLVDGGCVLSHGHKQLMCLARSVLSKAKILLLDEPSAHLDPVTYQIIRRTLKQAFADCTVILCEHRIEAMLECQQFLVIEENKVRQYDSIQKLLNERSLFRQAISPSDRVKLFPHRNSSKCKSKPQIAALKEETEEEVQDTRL
T2 sequence (P13569 with tags, fused parts or gaps DEL508-508): as above

Take `CC(C)c1nn(-c2cccc(N3CCC3)c2)c2nc(C(=O)NS(C)(=O)=O)cc(-c3ccc(N4CCOCC4)cc3)c12` [Compound 10, 1-[3-(azetidin-1-yl)phenyl]-N-(methanesulfonyl)-4-[4-(morpholin-4-yl)phenyl]-3-(propan-2-yl)-1H-pyrazolo[3,4-b]pyridine-6-carboxamide]: in assay [1], the “% Activation” value was found to be 606.5% and the EC50 came out at 443 nM. The “% Activity at 3 μM (Ieq*)” value in assay [2] (without co-corrector) turned out to be 591.84%.
On to `CC(C)c1nn(C2CCCCC2)c2nc(C(=O)NS(C)(=O)=O)cc(-c3cnc(N4CCOCC4)nc3)c12` [Compound 11, 1-cyclohexyl-N-(methanesulfonyl)-4-[2-(morpholin-4-yl)pyrimidin-5-yl]-3-(propan-2-yl)-1H-pyrazolo[3,4-b]pyridine-6-carboxamide], for which, in assay [1], the “% Activation” value came to 381.33% and the EC50 came out at 455 nM. Further, in assay [2] (without co-corrector), the “% Activity at 3 μM (Ieq*)” value amounted to 351%.
For `Cc1nn(-c2ccccc2)c2nc(C(=O)NS(C)(=O)=O)cc(N3CCCCC3)c12` [Compound 13, N-(methanesulfonyl)-3-methyl-1-phenyl-4-(piperidin-1-yl)-1H-pyrazolo[3,4-b]pyridine-6-carboxamide], in assay [1], the “% Activation” value is reported as 341.75% and the half-maximal effective concentration (EC50) amounted to 1470 nM. Moreover, the “% Activity at 3 μM (Ieq*)” value in assay [2] (without co-corrector) is 74.32%. In addition, the “% Activity at 10 μM (Ieq*)” value in assay [2] (10 μM compound, without co-corrector) came to 174.53%.
With `CS(=O)(=O)NC(=O)c1cc(-c2ccc(N3CCC(C#N)CC3)nc2)c2c(C3CCC3)nn(C3CCCCC3)c2n1` [Compound 104, 4-[6-(4-cyanopiperidin-1-yl)pyridin-3-yl]-3-cyclobutyl-1-cyclohexyl-N-(methanesulfonyl)-1H-pyrazolo[3,4-b]pyridine-6-carboxamide], in assay [1], the “% Activation” value turned out to be 411.33% and the EC50 amounted to 344 nM. Further, the “% Activity at 3 μM with co-corrector (Ieq*)” value in assay [2] (3 μM compound with co-corrector) is recorded as 102.36%.
